This note sets out measurements from patent EP4806904A1, “POLYPEPTIDE AND USE THEREOF” (Sichuan Gooddoctor Panxi Pharmaceutical Co. Ltd, priority 2023, dated 2026).

For experiment [1], the system named is Brain microvascular endothelial cells (BMECs) and brain microvascular smooth muscle cells (BMVSMCs). Briefly: In vitro angiogenesis assay, BMEC/BMVSMC co-culture on matrigel. It counts as cell-based, mouse. As to conditions: 0.1 mg/L, 48 h. Here is the method: First, mouse brain microvascular pellets were obtained by differential centrifugation. Brain microvascular endothelial cells (BMECs) and brain microvascular smooth muscle cells (BMVSMCs) were isolated by digestion with collagenase II, respectively, and cultured in a cell incubator with 5% CO2 at 37°C . Cells at passages 3-6 in good growth condition and logarithmic growth phase were selected for the in vitro angiogenesis assay.
One night before the experiment, the high-concentration matrigel was transferred from a -20°C or -80°C refrigerator to a 4°C refrigerator and allowed to thaw slowly overnight in the 4°C refrigerator. Pipette tips required for the formal experiment were sterilized in advance and pre-cooled in a 4°C refrigerator for subsequent use.
On the day of the experiment, the matrigel was added to a 96-well plate 1 h in advance and placed in a 37°C cell incubator until it solidified. Subsequently, the cells were washed 2 times with 2 mL of PBS buffer, followed by digestion with 0.25% trypsin to obtain EC and VSMC pellets, respectively, and cell counting was performed. A uniform cell suspension containing 5×10^3 BMVSMCs and 1×10^3 BMECs per well was then seeded into the 96-well plate pre-coated with the matrigel, and cultured in a 37°C, 5% CO2 cell incubator for 3 days.
During the culture period, tube formation was observed daily. The medium was changed on day 4, followed by treatment with the polypeptide of the invention at 0.1 mg/L or VEGFA at 10/15/20 ng/L for 48 h, respectively.
On day 5, the cell nuclei and live cells were labeled with Hoechst 33342 and Calcein AM, respectively. High-content brightfield and fluorescence imaging were then performed using a high-content screening system. Finally, angiogenesis in each treatment group was analyzed using the Angiogenesis Analyzer plugin for ImageJ, and statistical analysis was carried out with GraphPad Prism 10.

The test system of experiment [2] is primary neural stem cells (NSCs). Put plainly: Differentiation of primary neural stem cells, βIII-tubulin fluorescence and Neurite Outgrowth Assay. As to conditions: 100 µg/mL; for neurite outgrowth (total neurite length, maximum neurite length, neurite terminals, neurite initiation points) / Longest neurite length / mean fluorescence intensity of the neuronal marker protein βIII-tubulin / Average fluorescence intensity / Neurite initiation points (branches) / Total neurite length / Number of neurite terminals: 4 days; for neurite outgrowth (total neurite length, maximum neurite length, neurite terminals, neurite initiation points): Neurite Outgrowth Assay; for neurite outgrowth (total neurite length, maximum neurite length, neurite terminals, neurite initiation points) / mean fluorescence intensity of the neuronal marker protein βIII-tubulin: in words; for Longest neurite length / Average fluorescence intensity / Neurite initiation points (branches) / Total neurite length / Number of neurite terminals: significance vs blank control group; for mean fluorescence intensity of the neuronal marker protein βIII-tubulin: vs blank control group; for Average fluorescence intensity: βIII-tubulin. It counts as cell-based, SD rats. Here is the method: This part of the experiment requires feeding male and female rats in advance, then extracting hippocampal neural stem cells from newborn SD rats within 24 h of birth, culturing them to P3 for identification, and then using them for experiments. • (1) Extraction and culture of primary neural stem cells (NSCs) • (2) NSCs that have been passaged to P3 and have good viability were seeded in differentiation medium (2% FBS+DMEM/F12 1:1 medium) in 48-well plates with a cell concentration of 5×10^4 cells/mL per well. After overnight culture for cell adherence, the cells were treated with drugs; • (3) Drug treatment was applied. The final concentration of the polypeptide of the invention was 100 µg/mL. Meanwhile, nerve growth factor (NGF, 50 ng/mL) was set as the positive control, and the cells were cultured in the incubator for another 4 days; • (4) Immunofluorescence staining (primary antibody βIII-tubulin) was performed after 4 days of treatment. The average fluorescence intensity of βIII-tubulin was analyzed and the Neurite Outgrowth Assay was performed using a high-content cell imaging analysis system.

The test system of experiment [3] is neural stem cell line C17.2. Put plainly: Proliferation of neural stem cell line C17.2, BrdU, high-content imaging. Type of experiment: cell-based. The following applies: 100 µg/mL, 48 h; for Proliferation-promoting results: percentage of BrdU-positive cells, significance vs blank control group; for number of BrdU positive cells: vs blank control group, in words. Here is the method:
• (1) C17.2 cells were seeded in 96-well plates at a concentration of 1500 cells/100 µL/well. After overnight culture for cell adherence, the cells were treated with drugs; • (2) Drug treatment was applied. The final concentration of the polypeptide of the invention was 100 µg/mL. Meanwhile, butylphthalide (NBP, 5 µM) was set as the positive control. The cells were cultured in the incubator for another 48 h; • (3) BrdU was added at 44 h of treatment to a final concentration of 10 µM. Immunofluorescence staining was performed 4 h later, and the percentage of BrdU-positive cells was statistically analyzed using a high-content cell imaging analysis system.

Setting [4] is: significance vs blank control group.

Where a SMILES comes first, the peptide text is derived from it. Where no end group is shown, it is not given here. [ ]: non-standard residue; d: D form.

As for “H-ALPAGGTL-OH [Compound 15, H-Ala-Leu-Pro-Ala-Gly-Gly-Thr-Leu-OH]”, the Number of intersections entry in experiment [1] (setting [4]) is given as “* (*p < 0.05)”. In experiment [1] (vs normal group, in words), the Branch length entry is given as “no significant effects” and the number of junctions entry was “promoting effects”. Besides, in experiment [2], the “neurite outgrowth (total neurite length, maximum neurite length, neurite terminals, neurite initiation points)” value (shortened to “neurite outgrowth”) is given as “tendency to promote neurite outgrowth” and the Longest neurite length result is “* (*p < 0.05)”. Besides, the Proliferation-promoting results in experiment [3] is recorded as “* (*p < 0.05)”.
Regarding “ALPAPG [Compound 40, H-Ala-Leu-Pro-Ala-Pro-Gly-Oh]”, in experiment [1] (setting [4]), the Cell count result was “* (*p < 0.05)”. For the same compound, the cell proliferation entry in experiment [1] (vs normal group, in words) was “only promoted cell proliferation”. Also, in experiment [2], the “mean fluorescence intensity of the neuronal marker protein βIII-tubulin” value (shortened to “mean fluorescence intensity”) is given as “significant increase” and the Average fluorescence intensity entry is listed as “* (*p < 0.05)”. In experiment [3], the Proliferation-promoting results is on record as “* (*p < 0.05)” and the “number of BrdU positive cells” value is given as “significant increase”.
Turning to “H-LAPAPGTI-OH [Compound 20, H-Leu-Ala-Pro-Ala-Pro-Gly-Thr-Ile-OH]”, in experiment [1] (setting [4]), the Number of intersections entry is on record as “* (*p < 0.05)”. Moreover, in experiment [1] (vs normal group, in words), the Branch length entry is listed as “no significant effects” and the number of junctions entry is on record as “promoting effects”. In experiment [2], the “neurite outgrowth” value is listed as “tendency to promote neurite outgrowth”; the Longest neurite length result is recorded as “* (*p < 0.05)”; the “Neurite initiation points (branches)” value was “* (*p < 0.05)”; the “mean fluorescence intensity” value is given as “tendency to enhance”. In experiment [3], the Proliferation-promoting results is listed as “* (*p < 0.05)”.
Turning to `CC(C)C[C@H](NC(=O)[C@H](NC(=O)CNC(=O)[C@@H]1CCCN1C(=O)[C@H](C)NC(=O)[C@@H]1CCCN1C(=O)[C@H](CC(C)C)NC(=O)[C@H](C)N)[C@H](C)O)C(=O)O` [Compound 7, H-Ala-Leu-Pro-Ala-Pro-Gly-D-Thr-Leu-OH] (H-ALPAPG[dT]L-OH), the Cell count result in experiment [1] (setting [4]) was “** (**p < 0.01)”. For the same compound, the cell proliferation entry in experiment [1] (vs normal group, in words) is listed as “only promoted cell proliferation”. Besides, in experiment [2], the “neurite outgrowth” value was “tendency to promote neurite outgrowth”; the Longest neurite length entry is listed as “* (*p < 0.05)”; the Total neurite length entry is on record as “* (*p < 0.05)”. The Proliferation-promoting results in experiment [3] was “** (**p < 0.01)”.
Regarding `CC(C)C[C@H](NC(=O)[C@@H](NC(=O)CNC(=O)[C@@H]1CCCN1C(=O)[C@H](C)NC(=O)[C@@H]1CCCN1C(=O)[C@@H](CC(C)C)NC(=O)[C@H](C)N)[C@@H](C)O)C(=O)O` [Compound 3, H-Ala-D-Leu-Pro-Ala-Pro-Gly-Thr-Leu-OH] (H-A[dL]PAPGTL-OH), the Cell count result in experiment [1] (setting [4]) is recorded as “* (*p < 0.05)”. Further, the cell proliferation entry in experiment [1] (vs normal group, in words) was “only promoted cell proliferation”. In addition, in experiment [2], the Longest neurite length entry was “** (**p < 0.01)”, the “Neurite initiation points (branches)” value is listed as “* (*p < 0.05)”, the “Number of neurite terminals” value is reported as “* (*p < 0.05)” and the Total neurite length result is listed as “** (**p < 0.01)”. Further, in experiment [2], the “mean fluorescence intensity” value is “significant increase” and the Average fluorescence intensity entry is “* (*p < 0.05)”. Moreover, the “differentiation of NSCs into neuronal cells” value in experiment [2] (conclusion based on the results of the two analytical methods) is on record as “promote the differentiation of NSCs into neuronal cells with stable effects”. Besides, in experiment [3], the “number of BrdU positive cells” value is “tendency to increase”.
In the case of “H-ALPAPGTL-NH2 [Compound 10, H-Ala-Leu-Pro-Ala-Pro-Gly-Thr-Leu-NH2]”, the Cell count entry in experiment [1] (setting [4]) was “* (*p < 0.05)”. In experiment [1] (vs normal group, in words), the cell proliferation result is reported as “only promoted cell proliferation”. Further, in experiment [2], the “neurite outgrowth” value was “tendency to promote neurite outgrowth”; the “Number of neurite terminals” value is “** (**p < 0.01)”; the Total neurite length entry is on record as “* (*p < 0.05)”; the “mean fluorescence intensity” value is “tendency to enhance”. Besides, in experiment [3], the Proliferation-promoting results is on record as “** (**p < 0.01)” and the “number of BrdU positive cells” value was “significant increase”.
With `C[C@H](NC(=O)[C@@H]1CCCN1)C(=O)N1CCC[C@H]1C(=O)NCC(=O)O` [Compound 36, H-Pro-Ala-Pro-Gly-OH] (H-PAPG-OH), in experiment [1] (setting [4]), the Branch length entry is “** (**p < 0.01)” and the Cell count result is reported as “** (**p < 0.01)”. Further, in experiment [1] (vs normal group, in words), the Branch length entry was “promoting effects” and the number of junctions entry is on record as “no significant effects”. In addition, in experiment [2], the “neurite outgrowth” value is on record as “tendency to promote neurite outgrowth”; the “Number of neurite terminals” value is “* (*p < 0.05)”; the Total neurite length result is on record as “* (*p < 0.05)”. Also, in experiment [3], the Proliferation-promoting results is reported as “** (**p < 0.01)” and the “number of BrdU positive cells” value is given as “significant increase”.
Consider “Ac-ALPAPGTL-NH2 [Compound 11, Ac-Ala-Leu-Pro-Ala-Pro-Gly-Thr-Leu-NH2]”, for which, in experiment [1] (setting [4]), the Branch length result is “* (*p < 0.05)” and the Number of intersections result is listed as “* (*p < 0.05)”. Moreover, the angiogenesis-promoting effects result in experiment [1] (vs normal group, in words) was “exhibited angiogenesis-promoting effects”. Further, in experiment [2], the “neurite outgrowth” value is listed as “promote neurite outgrowth”; the Longest neurite length entry is given as “** (**p < 0.01)”; the “Neurite initiation points (branches)” value is given as “*** (***p < 0.001)”; the “Number of neurite terminals” value is listed as “** (**p < 0.01)”. In experiment [2], the Total neurite length result is given as “*** (***p < 0.001)”. Further, in experiment [3], the Proliferation-promoting results was “** (**p < 0.01)” and the “number of BrdU positive cells” value is reported as “significant increase”.
